Earlier results on one molecule are cited in US11359044B2, “Preparation and application of novel multifunctional nanocomposite material with new photosensitizer” (priority 2018, dated 2022).

The conditions of this series: in DMSO, used as control.

As for `[Zn+2].c1ccc2c(c1)-c1nc-2nc2[n-]c(nc3nc([n-]c4nc(n1)-c1ccccc1-4)-c1ccccc1-3)c1ccccc21` [ZnPc, zinc phthalocyanine], the singlet oxygen yield was 0.67.
